The source of these data is PMC3956872 (PLoS ONE, 2014).

This experiment deals with T1, TcAAAP069 (Trypanosoma cruzi, UniProt Q4DAV2).
T1 construct: gene Tc00.1047053504069.120; full-length gene in pTREXL, overexpressed in T. cruzi epimastigotes (also p416/pDR196 in S. cerevisiae MG266 gap1 put4); about 10 transmembrane spans; allele TcAAAP229 has a 62-residue N-terminal extension
T1 sequence (Q4DAV2 entry or part of it): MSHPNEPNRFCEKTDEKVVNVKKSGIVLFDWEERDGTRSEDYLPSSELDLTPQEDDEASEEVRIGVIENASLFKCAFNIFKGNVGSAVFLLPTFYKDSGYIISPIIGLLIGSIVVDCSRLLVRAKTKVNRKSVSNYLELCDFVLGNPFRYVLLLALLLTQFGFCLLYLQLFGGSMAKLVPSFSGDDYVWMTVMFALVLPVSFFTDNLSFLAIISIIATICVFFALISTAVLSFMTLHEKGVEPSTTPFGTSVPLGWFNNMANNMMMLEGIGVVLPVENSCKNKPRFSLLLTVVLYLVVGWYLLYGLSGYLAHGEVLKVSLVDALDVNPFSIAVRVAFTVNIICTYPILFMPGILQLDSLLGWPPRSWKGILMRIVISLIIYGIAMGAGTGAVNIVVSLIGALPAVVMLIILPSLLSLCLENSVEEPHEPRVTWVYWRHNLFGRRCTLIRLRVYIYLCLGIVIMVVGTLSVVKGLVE
The experiment is described as follows: cell-based. Particulars: read-out: % inhibition at 10 mM.
Usually inhibition stands for the change of the read-out against control, counted positive when it falls. For the compound `O=C(O)[C@H]1CCCN1` [D-proline], the inhibition at 10000 µM came to 76.3%. As to `O=C(O)[C@@H]1CSCN1` [L-thiazolidine-4-carboxylic acid], the inhibition at 10000 µM was determined as 44.2%. Next, `O=C(O)[C@@H]1C[C@@H](O)CN1` [hydroxyproline]: 91.8%.
